# Assay results published in publication PMC9056950, “Synthesis and biochemical evaluation of cephalosporin analogues equipped with chemical tethers” (RSC Advances, 2020).
# Tests used:
# E. coli = system: T1, E. coli; design: species or system Escherichia coli BW25113; broth growth inhibition, OD600, fitted MIC from dose curve, LB, 37 C; settings: 16 h; inhibitor
# T1 construct: BW25113
# Procedure: Stock solutions of each compound were prepared in 50% DMSO/water at ×100 the final concentration. In a 96-well plate, 2 μL of the test compounds were added to each well. Each plate included the positive control (750 μg mL^−1 chloramphenicol), the negative control (50% DMSO/water) and media only wells. To each test well was then added 198 μL of the required bacteria stock (OD 0.05). E. coli assays were carried out using LB broth, S. aureus were carried out using tryptic soy broth (TSB). Plates were incubated at 37 °C and the OD600 was measured (Epoch 2 Microplate Spectrophotometer, BioTek) every 30 min over a 17 h period. Tests were carried out in triplicate, the background absorbance was removed using reference wells, and the averages were determined. Dose curves were plotting using the OD600 after 16 h growth vs. compound concentration. MICs were defined as the minimum concentration of compound at which no significant growth was observed after 16 h incubation. MIC values were determined using GraphPad Prism (version 8.3.0). […] Further testing was carried out […] to determine whether the tethered compounds had any antibacterial activity. Table 2 summarises the MIC values determined for 1–12, MBC50 data is included in the ESI. ^†
# PBP3 = biological target: T2, PBP3 (Escherichia coli, UniProt P0AD68); assay: thermal shift, ligand titration; format: binding; settings: 2 μM PBP3, 25 min at room temperature before melt 35-70 °C; approximate affinity, not a Kd
# T2 construct: gene ftsI
# T2 sequence (P0AD68 44-588): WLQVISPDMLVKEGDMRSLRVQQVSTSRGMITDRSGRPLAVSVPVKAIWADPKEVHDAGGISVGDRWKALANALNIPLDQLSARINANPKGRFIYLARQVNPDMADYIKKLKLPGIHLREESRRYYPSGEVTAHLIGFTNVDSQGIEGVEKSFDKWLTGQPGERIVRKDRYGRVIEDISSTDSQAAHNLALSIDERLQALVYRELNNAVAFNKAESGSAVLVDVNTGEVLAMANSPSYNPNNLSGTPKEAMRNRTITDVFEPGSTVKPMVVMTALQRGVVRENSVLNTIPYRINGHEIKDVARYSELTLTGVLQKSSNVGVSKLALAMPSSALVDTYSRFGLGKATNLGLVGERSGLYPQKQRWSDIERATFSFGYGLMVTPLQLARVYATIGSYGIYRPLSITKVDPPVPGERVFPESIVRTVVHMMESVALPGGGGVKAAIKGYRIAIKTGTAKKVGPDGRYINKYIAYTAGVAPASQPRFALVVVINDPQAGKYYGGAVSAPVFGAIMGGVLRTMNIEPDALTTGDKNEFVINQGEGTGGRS
equivalents required for >Tm1/2 (PBP3) [equivalents],Structure (SMILES),"MIC (E. coli, best-fit) (E. coli) [µM]"
–,"COCC1=C(C(=O)O)N2C(=O)[C@@H](NC(=O)/C(=N\OC)c3csc(N)n3)[C@H]2SC1 [compound 12, cefpodoxime]",7.744
75,"CC1=C(C(=O)O)N2C(=O)[C@@H](NC(=O)[C@H](N)c3ccccc3)[C@H]2SC1 [compound 1, cephalexin]",94.91
